Test results: PubChem BioAssay AID2060610 (Molecular Pharmacology Branch, DTP, NCI, 2025)
Several values for one entry are separate records, joined by “and”; a condition that tells them apart may be missing. Equal values may be shown once.

Test system: 616215-338-R-J1-PDC complex spheroids, viability % test/control
Test: Anticancer human tumor 616215-338-R-J1-PDC patient-derived colon adenocarcinoma cell line growth inhibition [CLK]
Details: for viability, T/C: stronger effect = lower value
How it was run: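 Multi-cell-type spheroids combined patient-derived tumor cells with HUVEC endothelial cells and human mesenchymal stem cells. Paired agents were dosed in half-log steps down from about clinical Cmax, or from 10 microM where Cmax was unknown.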

[1] = curve of first compound, second compound 0.0316 µM
[2] = curve of first compound, second compound 0.1 µM
[3] = curve of first compound, second compound 0.316 µM
[4] = curve of first compound, second compound 1 µM
[5] = curve of first compound, second compound 3.16 µM
[6] = curve of first compound, second compound 10 µM
[7] = second compound 0.0316 µM, first compound 0.0316 µM
[8] = second compound 0.0316 µM, first compound 0.1 µM
[9] = second compound 0.0316 µM, first compound 0.316 µM
[10] = second compound 0.0316 µM, first compound 1 µM
[11] = second compound 0.0316 µM, first compound 3.16 µM
[12] = second compound 0.0316 µM, first compound 10 µM
[13] = second compound 0.1 µM, first compound 0.0316 µM
[14] = second compound 0.1 µM, first compound 0.1 µM
[15] = second compound 0.1 µM, first compound 0.316 µM
[16] = second compound 0.1 µM, first compound 1 µM
[17] = second compound 0.1 µM, first compound 3.16 µM
[18] = second compound 0.1 µM, first compound 10 µM
[19] = second compound 0.316 µM, first compound 0.0316 µM
[20] = second compound 0.316 µM, first compound 0.1 µM
[21] = second compound 0.316 µM, first compound 0.316 µM
[22] = second compound 0.316 µM, first compound 1 µM
[23] = second compound 0.316 µM, first compound 3.16 µM
[24] = second compound 0.316 µM, first compound 10 µM
[25] = second compound 1 µM, first compound 0.0316 µM
[26] = second compound 1 µM, first compound 0.1 µM
[27] = second compound 1 µM, first compound 0.316 µM
[28] = second compound 1 µM, first compound 1 µM
[29] = second compound 1 µM, first compound 3.16 µM
[30] = second compound 1 µM, first compound 10 µM
[31] = second compound 3.16 µM, first compound 0.0316 µM
[32] = second compound 3.16 µM, first compound 0.1 µM
[33] = second compound 3.16 µM, first compound 0.316 µM
[34] = second compound 3.16 µM, first compound 1 µM
[35] = second compound 3.16 µM, first compound 3.16 µM
[36] = second compound 3.16 µM, first compound 10 µM
[37] = second compound 10 µM, first compound 0.0316 µM
[38] = second compound 10 µM, first compound 0.1 µM
[39] = second compound 10 µM, first compound 0.316 µM
[40] = second compound 10 µM, first compound 1 µM
[41] = second compound 10 µM, first compound 3.16 µM
[42] = second compound 10 µM, first compound 10 µM
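Note: spheroids exposed to agents for 7 days.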
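Throughout, for viability, T/C: 100% = DMSO vehicle wells.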

O=c1[nH]cc(F)c(=O)[nH]1 + CNC(=O)c1ccc(Nc2nc(OC3CCCC3)c3c(-c4ccc5nc(C)oc5c4)c[nH]c3n2)c(OC)c1
IC50 [1]: 0.707 µM | IC50 [2]: < 0.0316 µM | IC50 [3]: < 0.0316 µM | IC50 [4]: < 0.0316 µM | IC50 [5]: < 0.0316 µM | IC50 [6]: < 0.0316 µM | viability, T/C [7]: 96.7% | viability, T/C [8]: 110% | viability, T/C [9]: 60.2% | viability, T/C [10]: 52.3% | viability, T/C [11]: 43.1% | viability, T/C [12]: 41.4% | viability, T/C [13]: 47% | viability, T/C [14]: 45.9% | viability, T/C [15]: 35% | viability, T/C [16]: 34.1% | viability, T/C [17]: 40.9% | viability, T/C [18]: 36.5% | viability, T/C [19]: 41.6% | viability, T/C [20]: 41.7% | viability, T/C [21]: 33.6% | viability, T/C [22]: 37.3% | viability, T/C [23]: 36.6% | viability, T/C [24]: 39.3% | viability, T/C [25]: 43.4% | viability, T/C [26]: 38% | viability, T/C [27]: 36.3% | viability, T/C [28]: 37.8% | viability, T/C [29]: 38.2% | viability, T/C [30]: 33.3% | viability, T/C [31]: 42.3% | viability, T/C [32]: 42.2% | viability, T/C [33]: 38% | viability, T/C [34]: 32.6% | viability, T/C [35]: 36% | viability, T/C [36]: 36.4% | viability, T/C [37]: 51.1% | viability, T/C [38]: 41.3% | viability, T/C [39]: 41.8% | viability, T/C [40]: 38.5% | viability, T/C [41]: 37.1% | viability, T/C [42]: 39.2%

NC(=O)C(=Cn1cnc(-c2cc(C(F)(F)F)cc(C(F)(F)F)c2)n1)c1cncnc1
viability, T/C (compound 0.00949 µM): 99.3% and 94.8% | viability, T/C (compound 0.03 µM): 103% and 87.1% | viability, T/C (compound 0.0949 µM): 103% and 94.1% | viability, T/C (compound 0.3 µM): 66.9% and 87.5% | viability, T/C (compound 0.949 µM): 35.8% and 33.5% | viability, T/C (compound 3 µM): 15% and 17.6% | IC50 (curve of compound): 0.562 µM and 0.668 µM

CC(Nc1ccc2c(c1)OCCn1cc(N3C(=O)OCC3C(F)F)nc1-2)C(N)=O (stereo not drawn) + CNC(=O)c1ccc(Nc2nc(OC3CCCC3)c3c(-c4ccc5nc(C)oc5c4)c[nH]c3n2)c(OC)c1
IC50 [1]: > 10 µM | IC50 [2]: 3.81 µM | IC50 [3]: < 0.0316 µM | IC50 [4]: < 0.0316 µM | IC50 [5]: < 0.0316 µM | IC50 [6]: < 0.0316 µM | viability, T/C [7]: 95.8% | viability, T/C [8]: 106% | viability, T/C [9]: 100% | viability, T/C [10]: 104% | viability, T/C [11]: 104% | viability, T/C [12]: 90.3% | viability, T/C [13]: 52.5% | viability, T/C [14]: 65.9% | viability, T/C [15]: 51.7% | viability, T/C [16]: 56.2% | viability, T/C [17]: 51.5% | viability, T/C [18]: 42.1% | viability, T/C [19]: 38.8% | viability, T/C [20]: 34.2% | viability, T/C [21]: 37.6% | viability, T/C [22]: 25.4% | viability, T/C [23]: 26.1% | viability, T/C [24]: 21.9% | viability, T/C [25]: 33% | viability, T/C [26]: 32.5% | viability, T/C [27]: 26.4% | viability, T/C [28]: 23.3% | viability, T/C [29]: 16.4% | viability, T/C [30]: 14.8% | viability, T/C [31]: 35.2% | viability, T/C [32]: 25.9% | viability, T/C [33]: 21.7% | viability, T/C [34]: 17.4% | viability, T/C [35]: 17% | viability, T/C [36]: 12.4% | viability, T/C [37]: 28% | viability, T/C [38]: 28.8% | viability, T/C [39]: 21.9% | viability, T/C [40]: 17.7% | viability, T/C [41]: 17% | viability, T/C [42]: 12.8%

CC(=O)O[C@H]1C(=O)[C@@]2(C)[C@H]([C@H](OC(=O)c3ccccc3)[C@]3(O)C[C@H](OC(=O)[C@H](O)[C@@H](NC(=O)c4ccccc4)c4ccccc4)C(C)=C1C3(C)C)[C@]1(OC(C)=O)CO[C@@H]1C[C@@H]2O
viability, T/C (compound 0.0316 µM): 32.9% and 37.9% | viability, T/C (compound 0.1 µM): 22.2% and 31.7% | viability, T/C (compound 0.316 µM): 18.2% and 24% | viability, T/C (compound 1 µM): 15.4% and 23.8% | viability, T/C (compound 3.16 µM): 19.5% and 23.1% | viability, T/C (compound 10 µM): 24% and 28.7% | IC50 (curve of compound): < 0.0316 µM

CC(C)CC(NC(=O)C(Cc1ccccc1)NC(=O)c1cnccn1)B(O)O (stereo not drawn)
viability, T/C (compound 0.000949 µM): 109% and 107% | viability, T/C (compound 0.003 µM): 109% and 97.9% | viability, T/C (compound 0.00949 µM): 0.2% and 0.21% | viability, T/C (compound 0.03 µM): 0.18% and 0.25% | viability, T/C (compound 0.0949 µM): 0.12% and 0.23% | viability, T/C (compound 0.3 µM): 0.85% and 0.21% | IC50 (curve of compound): 0.00561 µM and 0.00528 µM

Nc1ccn(C2OC(CO)C(O)C2(F)F)c(=O)n1 (stereo not drawn)
viability, T/C (compound 0.0316 µM): 13.9% and 20.9% | viability, T/C (compound 0.1 µM): 11.6% and 15.4% | viability, T/C (compound 0.316 µM): 9.93% and 15.4% | viability, T/C (compound 1 µM): 13.5% and 17% | viability, T/C (compound 3.16 µM): 9.75% and 16.1% | viability, T/C (compound 10 µM): 11.3% and 14.7% | IC50 (curve of compound): < 0.0316 µM

O=c1[nH]cc(F)c(=O)[nH]1
viability, T/C (compound 0.0316 µM): 94% and 97.5% | viability, T/C (compound 0.1 µM): 95.6% and 111% | viability, T/C (compound 0.316 µM): 65.3% and 61.7% | viability, T/C (compound 1 µM): 44.4% and 46.8% | viability, T/C (compound 3.16 µM): 35.2% and 39.2% | viability, T/C (compound 10 µM): 39.2% and 43.4% | IC50 (curve of compound): 0.672 µM and 0.654 µM

CCCS(=O)(=O)Nc1ccc(F)c(C(=O)c2c[nH]c3ncc(-c4ccc(Cl)cc4)cc23)c1F + CNC(=O)c1ccc(Nc2nc(OC3CCCC3)c3c(-c4ccc5nc(C)oc5c4)c[nH]c3n2)c(OC)c1
IC50 [1]: 6.93 µM | IC50 [2]: 0.698 µM | IC50 [3]: < 0.0316 µM | IC50 [4]: < 0.0316 µM | IC50 [5]: < 0.0316 µM | IC50 [6]: < 0.0316 µM | viability, T/C [7]: 94.6% | viability, T/C [8]: 102% | viability, T/C [9]: 98.9% | viability, T/C [10]: 89.9% | viability, T/C [11]: 93.8% | viability, T/C [12]: 29.6% | viability, T/C [13]: 55% | viability, T/C [14]: 62.2% | viability, T/C [15]: 44.3% | viability, T/C [16]: 53.6% | viability, T/C [17]: 34.6% | viability, T/C [18]: 13% | viability, T/C [19]: 42.4% | viability, T/C [20]: 37.1% | viability, T/C [21]: 39.7% | viability, T/C [22]: 41.5% | viability, T/C [23]: 27% | viability, T/C [24]: 14.8% | viability, T/C [25]: 43.8% | viability, T/C [26]: 38.8% | viability, T/C [27]: 42.3% | viability, T/C [28]: 30.9% | viability, T/C [29]: 27.2% | viability, T/C [30]: 11.6% | viability, T/C [31]: 41.4% | viability, T/C [32]: 44.3% | viability, T/C [33]: 41.4% | viability, T/C [34]: 31.6% | viability, T/C [35]: 22% | viability, T/C [36]: 10.1% | viability, T/C [37]: 40.4% | viability, T/C [38]: 34.4% | viability, T/C [39]: 38.3% | viability, T/C [40]: 27.9% | viability, T/C [41]: 21.4% | viability, T/C [42]: 8.93%

C=C(F)C(=O)N1CCN(c2nc(OCC3CCCN3C)nc3c2CCN(c2cccc4cccc(Cl)c24)C3)CC1CC#N (stereo not drawn) + CN1CCN(c2cc(C(=O)Nc3cc4cc(-c5cnn(C)c5)ccc4cn3)ccn2)CC1
IC50 [1]: 5.87 µM | IC50 [2]: 6.07 µM | IC50 [3]: < 0.0316 µM | IC50 [4]: < 0.0316 µM | IC50 [5]: < 0.0316 µM | IC50 [6]: < 0.0316 µM | viability, T/C [7]: 102% | viability, T/C [8]: 109% | viability, T/C [9]: 105% | viability, T/C [10]: 106% | viability, T/C [11]: 116% | viability, T/C [12]: 0.26% | viability, T/C [13]: 114% | viability, T/C [14]: 120% | viability, T/C [15]: 107% | viability, T/C [16]: 116% | viability, T/C [17]: 119% | viability, T/C [18]: 0.19% | viability, T/C [19]: 35.1% | viability, T/C [20]: 45.4% | viability, T/C [21]: 40.2% | viability, T/C [22]: 38.8% | viability, T/C [23]: 11.3% | viability, T/C [24]: 0.12% | viability, T/C [25]: 0.28% | viability, T/C [26]: 0.24% | viability, T/C [27]: 0.31% | viability, T/C [28]: 0.16% | viability, T/C [29]: 0.14% | viability, T/C [30]: 0.11% | viability, T/C [31]: 0.16% | viability, T/C [32]: 0.16% | viability, T/C [33]: 0.16% | viability, T/C [34]: 0.18% | viability, T/C [35]: 2.55% | viability, T/C [36]: 3.36% | viability, T/C [37]: 0.24% | viability, T/C [38]: 0.21% | viability, T/C [39]: 0.22% | viability, T/C [40]: 0.25% | viability, T/C [41]: 1.31% | viability, T/C [42]: 0.21%
